# Key:
# Acute Toxicity in Mice = conditions: mouse, in vivo
# mice = assay: Inhibition of Exploratory Behavior (Climbing) in mice; type: in vivo; conditions: Mus musculus, sc, 1 hr.
# Source text: (a) Inhibition of climbing in mice (inhibition of exploratory behavior). These tests have been described, and the importance of coordinating the compounds with these tests and the activities shown thereby is described in detail in the following literature: (a) Inhibition of Exploratory Behavior (Climbing) van Rossum, J.M., et al., in The Neuroleptics, Modern Problems of Pharmaco-[…], Vol. 5, […]., in Arch. Int. Pharmacodyn 126, 238 (1960). Sandberg, S., in Arzneimittelforschung 9, 203 (1958).
# rats = assay: Inhibition of Conditioned Avoidance Response in rats; type: in vivo; conditions: Rattus norvegicus, sc, 1.5 hrs.
# Source text: (b) Inhibition of conditioned behavior in rats. These tests have been described, and the importance of coordinating the compounds with these tests and the activities shown thereby is described in detail in the following literature: (b) Inhibition of Conditioned Avoidance Response "Neuroleptics characteristically interrupt the response to the warning stimulus (avoidance) without at the same time interrupting the response to the noxious stimulus (escape) which follows it." An introduction to Psycho-Pharmacology, Eds. Rech and Moore, New York, p. 264 (1971); Courvoisier, S., et al., in Arch. Int. Pharmacodyn. 92, 305 (1953); Jacobsen, E., in Psychotrophic Drugs, […], Amsterdam, p. 119 (1957). Jacobsen and Sonne, in Acta Pharmacol. et Toxicol. 11, pp. 135-147 (1955).
SMILES,LD50 at 48 h (Acute Toxicity in Mice; po),LD50 at 48 h (Acute Toxicity in Mice; sc),ED50 (mice),ED50 (rats)
"Cc1ccc(C(=O)C2(O)CCN(CCCC(=O)c3ccc(F)cc3)CC2)cc1 [CH3, 1-[3-(p-fluorobenzoyl)propyl]-4-(p-methylbenzoyl)-4-hydroxypiperidine]",> 1000 mg/kg,> 1000 mg/kg,0.8 mg/kg,0.32 mg/kg
"O=C(CCCN1CCC(O)(C(=O)c2ccc(Cl)cc2)CC1)c1ccc(F)cc1 [Cl, 1-[3-(p-fluorobenzoyl)propyl]-4-(p-chlorobenzoyl)-4-hydroxypiperidine]",630 mg/kg,> 1000 mg/kg,0.95 mg/kg,0.37 mg/kg
"Cl.O=C(CCCN1CCC(O)(C(=O)c2ccc(F)cc2)CC1)c1ccc(F)cc1 [F, 1-[3-(p-fluorobenzoyl)propyl]-4-(p-fluorobenzoyl)-4-hydroxypiperidine hydrochloride]",500 mg/kg,> 1000 mg/kg,0.19 mg/kg,0.13 mg/kg
"COc1ccc(C(=O)C2(O)CCN(CCCC(=O)c3ccc(F)cc3)CC2)cc1 [OCH3, 1-[3-(p-fluorobenzoyl)propyl]-4-(p-methoxybenzoyl)-4-hydroxypiperidine]",890 mg/kg,> 1000 mg/kg,1 mg/kg,0.24 mg/kg
